Key:
[1] = tested on: patients with end stage renal disease (ESRD); experiment: Treatment-emergent adverse events in the dose-ranging study; type: in vivo, human
Excerpt: Objectives: (1) To determine the effect of ferric citrate at doses of 2, 4 and 6 g daily, administered TID (three times a day), for 28 days on serum phosphate (PO4) levels in patients with end stage renal disease (ESRD). (2) To evaluate the safety of ferric citrate at doses of 2, 4, 6 g daily, administered TID, for 28 days in patients with ESRD.
Study Design: Randomized, double-blind, placebo-controlled, dose-ranging study to assess the effect of ferric citrate on serum phosphate concentrations in patients with ESRD on hemodialysis. Patients are assessed at Study Days 14 and 28 for effectiveness as measured by serum phosphate concentrations. Patients who received one or more doses of study medication are also assessed for safety.

[2] = tested on: patients with end stage renal disease (ESRD) on hemodialysis; experiment: Randomized, double-blind, placebo-controlled, dose-ranging study of ferric citrate on serum phosphate, Ca and Ca×PO4; type: in vivo, human; conditions: Day 28; 2, 4, 6 g/day TID vs placebo

O=C([O-])CC(O)(CC(=O)[O-])C(=O)[O-].[Fe+3] [ferric citrate]
Abdominal Pain (Preferred Term): # Event ([1]; 2 g/day (N = 33)): 0
Abdominal Pain (Preferred Term): (%) ([1]; 2 g/day (N = 33)): (0.0) %
Diarrhea (Preferred Term): # Event ([1]; 2 g/day (N = 33)): 3
Diarrhea (Preferred Term): (%) ([1]; 2 g/day (N = 33)): (9.1) %
GI Disorder, Definitely (relationship): # Event ([1]; 2 g/day (N = 33)): 0
GI Disorder, Definitely (relationship): (%) ([1]; 2 g/day (N = 33)): (0.0) %
GI Disorder, Possibly (relationship): # Event ([1]; 2 g/day (N = 33)): 3
GI Disorder, Possibly (relationship): (%) ([1]; 2 g/day (N = 33)): (9.1) %
GI Disorder, Probably (relationship): # Event ([1]; 2 g/day (N = 33)): 2
GI Disorder, Probably (relationship): (%) ([1]; 2 g/day (N = 33)): (6.1) %
GI Disorders (System Organ Class): # Event ([1]; 2 g/day (N = 33)): 8
GI Disorders (System Organ Class): (%) ([1]; 2 g/day (N = 33)): (24.2) %
GI Disorders, Mild (severity): # Event ([1]; 2 g/day (N = 33)): 6
GI Disorders, Mild (severity): (%) ([1]; 2 g/day (N = 33)): (18.2) %
General Disorders (System Organ Class): # Event ([1]; 2 g/day (N = 33)): 4
General Disorders (System Organ Class): (%) ([1]; 2 g/day (N = 33)): (12.1) %
Infections and Infestations (System Organ Class): # Event ([1]; 2 g/day (N = 33)): 0
Infections and Infestations (System Organ Class): (%) ([1]; 2 g/day (N = 33)): (0.0) %
Skin and SC Tissue Disorders (System Organ Class): # Event ([1]; 2 g/day (N = 33)): 3
Skin and SC Tissue Disorders (System Organ Class): (%) ([1]; 2 g/day (N = 33)): (9.1) %
T#at1AE, Definitely (relationship): # Event ([1]; 2 g/day (N = 33)): 0
T#at1AE, Definitely (relationship): (%) ([1]; 2 g/day (N = 33)): (0.0) %
T#at1AE, Mild (severity): # Event ([1]; 2 g/day (N = 33)): 13
T#at1AE, Mild (severity): (%) ([1]; 2 g/day (N = 33)): (39.4) %
T#at1AE, Moderate (severity): # Event ([1]; 2 g/day (N = 33)): 6
T#at1AE, Moderate (severity): (%) ([1]; 2 g/day (N = 33)): (18.2) %
T#at1AE, Possibly (relationship): # Event ([1]; 2 g/day (N = 33)): 5
T#at1AE, Possibly (relationship): (%) ([1]; 2 g/day (N = 33)): (15.2) %
T#at1AE, Probably (relationship): # Event ([1]; 2 g/day (N = 33)): 2
T#at1AE, Probably (relationship): (%) ([1]; 2 g/day (N = 33)): (6.1) %
T#at1AE, Severe (severity): # Event ([1]; 2 g/day (N = 33)): 0
T#at1AE, Severe (severity): (%) ([1]; 2 g/day (N = 33)): (0.0) %
Total number of subjects with at least one adverse event (T#at1AE): # Event ([1]; 2 g/day (N = 33)): 16
Total number of subjects with at least one adverse event (T#at1AE): (%) ([1]; 2 g/day (N = 33)): (48.5) %
Abdominal Pain (Preferred Term): # Event ([1]; 4 g/day (N = 34)): 4
Abdominal Pain (Preferred Term): (%) ([1]; 4 g/day (N = 34)): (11.8) %
Diarrhea (Preferred Term): # Event ([1]; 4 g/day (N = 34)): 1
Diarrhea (Preferred Term): (%) ([1]; 4 g/day (N = 34)): (2.9) %
GI Disorder, Definitely (relationship): # Event ([1]; 4 g/day (N = 34)): 0
GI Disorder, Definitely (relationship): (%) ([1]; 4 g/day (N = 34)): (0.0) %
GI Disorder, Possibly (relationship): # Event ([1]; 4 g/day (N = 34)): 6
GI Disorder, Possibly (relationship): (%) ([1]; 4 g/day (N = 34)): (17.6) %
GI Disorder, Probably (relationship): # Event ([1]; 4 g/day (N = 34)): 2
GI Disorder, Probably (relationship): (%) ([1]; 4 g/day (N = 34)): (5.9) %
GI Disorders (System Organ Class): # Event ([1]; 4 g/day (N = 34)): 10
GI Disorders (System Organ Class): (%) ([1]; 4 g/day (N = 34)): (29.4) %
GI Disorders, Mild (severity): # Event ([1]; 4 g/day (N = 34)): 8
GI Disorders, Mild (severity): (%) ([1]; 4 g/day (N = 34)): (23.5) %
General Disorders (System Organ Class): # Event ([1]; 4 g/day (N = 34)): 2
General Disorders (System Organ Class): (%) ([1]; 4 g/day (N = 34)): (5.9) %
Infections and Infestations (System Organ Class): # Event ([1]; 4 g/day (N = 34)): 3
Infections and Infestations (System Organ Class): (%) ([1]; 4 g/day (N = 34)): (8.8) %
Skin and SC Tissue Disorders (System Organ Class): # Event ([1]; 4 g/day (N = 34)): 0
Skin and SC Tissue Disorders (System Organ Class): (%) ([1]; 4 g/day (N = 34)): (0.0) %
T#at1AE, Definitely (relationship): # Event ([1]; 4 g/day (N = 34)): 0
T#at1AE, Definitely (relationship): (%) ([1]; 4 g/day (N = 34)): (0.0) %
T#at1AE, Mild (severity): # Event ([1]; 4 g/day (N = 34)): 9
T#at1AE, Mild (severity): (%) ([1]; 4 g/day (N = 34)): (26.5) %
T#at1AE, Moderate (severity): # Event ([1]; 4 g/day (N = 34)): 3
T#at1AE, Moderate (severity): (%) ([1]; 4 g/day (N = 34)): (8.8) %
T#at1AE, Possibly (relationship): # Event ([1]; 4 g/day (N = 34)): 6
T#at1AE, Possibly (relationship): (%) ([1]; 4 g/day (N = 34)): (17.6) %
T#at1AE, Probably (relationship): # Event ([1]; 4 g/day (N = 34)): 2
T#at1AE, Probably (relationship): (%) ([1]; 4 g/day (N = 34)): (5.9) %
T#at1AE, Severe (severity): # Event ([1]; 4 g/day (N = 34)): 2
T#at1AE, Severe (severity): (%) ([1]; 4 g/day (N = 34)): (5.9) %
Total number of subjects with at least one adverse event (T#at1AE): # Event ([1]; 4 g/day (N = 34)): 12
Total number of subjects with at least one adverse event (T#at1AE): (%) ([1]; 4 g/day (N = 34)): (35.3) %
Abdominal Pain (Preferred Term): # Event ([1]; 6 g/day (N = 33)): 2
Abdominal Pain (Preferred Term): (%) ([1]; 6 g/day (N = 33)): (6.1) %
Diarrhea (Preferred Term): # Event ([1]; 6 g/day (N = 33)): 1
Diarrhea (Preferred Term): (%) ([1]; 6 g/day (N = 33)): (3.0) %
GI Disorder, Definitely (relationship): # Event ([1]; 6 g/day (N = 33)): 0
GI Disorder, Definitely (relationship): (%) ([1]; 6 g/day (N = 33)): (0.0) %
GI Disorder, Possibly (relationship): # Event ([1]; 6 g/day (N = 33)): 1
GI Disorder, Possibly (relationship): (%) ([1]; 6 g/day (N = 33)): (3.0) %
GI Disorder, Probably (relationship): # Event ([1]; 6 g/day (N = 33)): 5
GI Disorder, Probably (relationship): (%) ([1]; 6 g/day (N = 33)): (15.2) %
GI Disorders (System Organ Class): # Event ([1]; 6 g/day (N = 33)): 10
GI Disorders (System Organ Class): (%) ([1]; 6 g/day (N = 33)): (30.3) %
GI Disorders, Mild (severity): # Event ([1]; 6 g/day (N = 33)): 9
GI Disorders, Mild (severity): (%) ([1]; 6 g/day (N = 33)): (27.3) %
General Disorders (System Organ Class): # Event ([1]; 6 g/day (N = 33)): 4
General Disorders (System Organ Class): (%) ([1]; 6 g/day (N = 33)): (12.1) %
Infections and Infestations (System Organ Class): # Event ([1]; 6 g/day (N = 33)): 1
Infections and Infestations (System Organ Class): (%) ([1]; 6 g/day (N = 33)): (3.0) %
Skin and SC Tissue Disorders (System Organ Class): # Event ([1]; 6 g/day (N = 33)): 4
Skin and SC Tissue Disorders (System Organ Class): (%) ([1]; 6 g/day (N = 33)): (12.1) %
T#at1AE, Definitely (relationship): # Event ([1]; 6 g/day (N = 33)): 0
T#at1AE, Definitely (relationship): (%) ([1]; 6 g/day (N = 33)): (0.0) %
T#at1AE, Mild (severity): # Event ([1]; 6 g/day (N = 33)): 14
T#at1AE, Mild (severity): (%) ([1]; 6 g/day (N = 33)): (42.4) %
T#at1AE, Moderate (severity): # Event ([1]; 6 g/day (N = 33)): 2
T#at1AE, Moderate (severity): (%) ([1]; 6 g/day (N = 33)): (6.1) %
T#at1AE, Possibly (relationship): # Event ([1]; 6 g/day (N = 33)): 2
T#at1AE, Possibly (relationship): (%) ([1]; 6 g/day (N = 33)): (6.1) %
T#at1AE, Probably (relationship): # Event ([1]; 6 g/day (N = 33)): 5
T#at1AE, Probably (relationship): (%) ([1]; 6 g/day (N = 33)): (15.2) %
T#at1AE, Severe (severity): # Event ([1]; 6 g/day (N = 33)): 1
T#at1AE, Severe (severity): (%) ([1]; 6 g/day (N = 33)): (3.0) %
Total number of subjects with at least one adverse event (T#at1AE): # Event ([1]; 6 g/day (N = 33)): 17
Total number of subjects with at least one adverse event (T#at1AE): (%) ([1]; 6 g/day (N = 33)): (51.5) %
side effect ([1]; Phase II study): minimum side effect
Ca × PO4 (mg/dL)^2: Linear Regression P [2]: P = 0.0158

From US9889113B2, “Method for reversing, preventing, delaying or stabilizing soft tissue calcification” (Panion & BF Biotech, Inc., priority 2006, dated 2018)
